The target in experiment [1] is T1, HCV NS3/4A protease complex (BMS strain) (UniProt P27958).
T1 construct: other: HCV NS3/4A enzyme assay; said of H77 and J4L6S; fused on or other part: Three-lysine solubilising tail at the NS4A C-terminus and a His tag from pET21b (Ni-NTA purification), for the H77 and J4L6S constructs
The experiment is described as follows: FRET peptide assay to monitor HCV NS3/4A proteolytic activity, BMS strain. In kind it is biochemical, Hepatitis C virus (genotype 1a). The conditions noted are these: read-out: IC50 Range; HCV NS3/4A enzyme assay; Table 1. From the text:
HCV NS3 protease complexes, derived from the BMS strain, H77 strain or J4L6S strain, were generated, as described below. These purified recombinant proteins were generated for use in a homogeneous assay (see below) to provide an indication of how effective compounds of the present disclosure would be in inhibiting HCV NS3 proteolytic activity.
Serum from an HCV-infected patient was obtained from Dr. T. Wright, San Francisco Hospital. An engineered full-length cDNA (compliment deoxyribonucleic acid) template of the HCV genome (BMS strain) was constructed from DNA fragments obtained by reverse transcription-PCR (RT-PCR) of serum RNA (ribonucleic acid) and using primers selected on the basis of homology between other genotype 1a strains. From the determination of the entire genome sequence, a genotype 1a was assigned to the HCV isolate according to the classification of Simmonds et al. (See P Simmonds, K A Rose, S Graham, S W Chan, F McOmish, B C Dow, E A Follett, P L Yap and […] Marsden, J. Clin. Microbiol., 31(6), 1493-1503 (1993)). […] The infectious clones, H77 (1a genotype) and J4L6S (1b genotype) were obtained from R. Purcell (NIH) and the sequences are published in Genbank (AAB67036, see Yanagi, M., Purcell, R. H., Emerson, S. U. and Bukh, J. Proc. Natl. Acad. Sci. U.S.A. 94(16), 8738-8743 (1997); AF054247, see Yanagi, M., St Claire, M., Shapiro, M., Emerson, S. U., Purcell, R. H. and Bukh, J, Virology 244 (1), 161-172. (1998)).
NS3/4A protease complex-containing fractions were pooled and loaded on a desalting column Superdex-S200 pre-equilibrated with buffer D (25 mM HEPES, pH 7.5, 20% glycerol, 300 mM NaCl, 0.2% Triton X-100, 10 mM βME). Sample was loaded at a flow rate of 1 mL/min. NS3/4A protease complex-containing fractions were pooled and concentrated to approximately 0.5 mg/ml. The purity of the NS3/4A protease complexes, derived from the BMS, H77 and J4L6S strains, were judged to be greater than 90% by SDS-PAGE and mass spectrometry analyses. The enzyme was stored at −80° C., thawed on ice and diluted prior to use in assay buffer.
The purpose of this in vitro assay was to measure the inhibition of HCV NS3 protease complexes, derived from the BMS strain, H77 strain or J4L6S strain, as described above, by compounds of the present disclosure. This assay provides an indication of how effective compounds of the present disclosure would be in inhibiting HCV NS3 proteolytic activity.
In order to monitor HCV NS3/4A protease activity, an NS3/4A peptide substrate was used. The substrate was RET S1 (Resonance Energy Transfer Depsipeptide Substrate; AnaSpec, Inc. cat # 22991) (FRET peptide), described by Taliani et al. in Anal. Biochem. 240(2):60-67 (1996). The sequence of this peptide is loosely based on the NS4A/NS4B natural cleavage site for the HCV NS3 protease except there is an ester linkage rather than an amide bond at the cleavage site. The peptide also contains a fluorescence donor, EDANS, near one end of the peptide and an acceptor, DABCYL, near the other end. The fluorescence of the peptide is quenched by […] resonance energy transfer (RET) between the donor and the acceptor, but as the NS3 protease cleaves the peptide the products are released from RET quenching and the fluorescence of the donor becomes apparent.
The peptide substrate was incubated with one of the three recombinant NS3/4A protease complexes, in the absence or presence of a compound of the present disclosure. The inhibitory effects of a compound were determined by monitoring the formation of fluorescent reaction product in real time using a Cytofluor Series 4000.
Assay buffer: 50 mM HEPES, pH 7.5; 0.15 M NaCl; 0.1% Triton; 15% Glycerol; 10 mM βME. Substrate: 2 μM final concentration (from a 2 mM stock solution in DMSO stored at −20° C.). HCV NS3/4A protease type 1a (1b), 2-3 nM final concentration (from a 5 μM stock solution in 25 mM HEPES, pH 7.5, 20% glycerol, 300 mM NaCl, 0.2% Triton-X100, 10 mM βME). […]

Experiment [2] has as its system HCV replicon in HUH-7 cells. Description: HCV replicon FRET assay. The experiment is classed as cell-based, Hepatitis C virus (strain 1b). The conditions noted are these: Hepatitis C virus, Huh-7, read-out: EC50 Range, HCV replicon cell assay; Table 1. The text has this:
An HCV replicon whole cell system was established as described by Lohmann V, Korner F, Koch J, Herian U, Theilmann L, Bartenschlager R., Science 285(5424): 110-3 (1999). This system enabled us to evaluate the effects of our HCV Protease compounds on HCV RNA replication. Briefly, using the HCV strain 1b sequence described in the Lohmann paper (Assession number: AJ238799), an HCV cDNA was synthesized by Operon Technologies, Inc. (Alameda, Calif.), and the full-length replicon was then assembled in plasmid pGem9zf(+) (Promega, Madison, Wis.) using standard molecular biology techniques. The replicon consists of (i) the HCV 5′ UTR fused to the first 12 amino acids of the capsid protein, (ii) the neomycin phosphotransferase gene (neo), (iii) the IRES from encephalomyocarditis virus (EMCV), and (iv) HCV NS3 to NS5B genes and the HCV 3′ UTR. Plasmid DNAs were linearized with ScaI and RNA transcripts were synthesized in vitro using the T7 MegaScript transcription kit (Ambion, Austin, Tex.) according to manufacturer's directions. In vitro transcripts of the cDNA were transfected into the human hepatoma cell line, HUH-7. […] Resulting cell lines were characterized for positive and negative strand RNA production and protein production over time.
The HCV replicon FRET assay was developed to monitor the inhibitory effects of compounds described in the disclosure on HCV viral replication. HUH-7 cells, constitutively expressing the HCV replicon, were grown in Dulbecco's Modified Eagle Media (DMEM) (Gibco-BRL) containing 10% Fetal calf serum (FCS) (Sigma) and 1 mg/ml G418 (Gibco-BRL). Cells were seeded the night before (1.5×10^4 cells/well) in 96-well tissue-culture sterile plates. Compound and no compound controls were prepared in DMEM containing 4% FCS, 1:100 Penicillin/Streptomysin (Gibco-BRL), 1:100 L-glutamine and 5% DMSO in the dilution plate (0.5% DMSO final concentration in the assay). Compound/DMSO mixes were added to the cells and incubated for 4 days at 37° C. After 4 days, cells were first assessed for cytotoxicity using alamar Blue (Trek Diagnotstic Systems) for a CC50 reading. The toxicity of compound (CC50) was determined by adding 1/10th volume of alamarBlue to the media incubating the cells. After 4 h, the fluorescence signal from each well was read, with an excitation wavelength at 530 nm and an emission wavelength of 580 nm, using the Cytofluor Series 4000 (Perspective Biosystems). Plates were then rinsed thoroughly with Phosphate-Buffered Saline (PBS) (3 times 150 μl). The cells were lysed with 25 μl of a lysis assay reagent containing an HCV protease substrate (5× cell Luciferase cell culture lysis reagent (Promega #E153A) diluted to 1× with distilled water, NaCl added to 150 mM final, the FRET peptide substrate (as described for the enzyme assay above) diluted to 10 μM final from a 2 mM stock in 100% DMSO. The plate was then placed into the Cytofluor 4000 instrument which had been set to 340 nm excitation/490 nm emissions, automatic mode for 21 cycles and the plate read in a kinetic mode. EC50 determinations were carried out as described for the IC50 determinations.

pEC50, pIC50: −log10 of the molar value.

T1 sequence (P27958 1027-1657, one chain of several): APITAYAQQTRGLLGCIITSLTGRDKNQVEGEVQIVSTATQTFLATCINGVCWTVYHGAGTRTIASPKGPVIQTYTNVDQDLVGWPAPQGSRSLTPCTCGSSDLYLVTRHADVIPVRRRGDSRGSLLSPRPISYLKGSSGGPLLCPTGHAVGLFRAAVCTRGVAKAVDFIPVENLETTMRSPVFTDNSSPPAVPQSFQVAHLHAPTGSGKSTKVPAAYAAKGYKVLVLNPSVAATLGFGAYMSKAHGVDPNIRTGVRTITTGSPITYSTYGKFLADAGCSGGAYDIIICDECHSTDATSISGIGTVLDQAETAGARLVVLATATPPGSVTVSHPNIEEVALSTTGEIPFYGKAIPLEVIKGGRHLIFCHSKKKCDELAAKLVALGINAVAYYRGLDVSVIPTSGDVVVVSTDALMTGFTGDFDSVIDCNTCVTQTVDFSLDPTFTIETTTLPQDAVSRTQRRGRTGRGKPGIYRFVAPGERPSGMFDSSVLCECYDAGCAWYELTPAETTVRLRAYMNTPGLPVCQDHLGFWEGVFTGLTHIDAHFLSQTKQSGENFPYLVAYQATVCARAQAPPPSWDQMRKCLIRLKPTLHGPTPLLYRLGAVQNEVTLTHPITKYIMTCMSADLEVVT

Take `C=C[C@@H]1C[C@]1(NC(=O)[C@@H]1C[C@@H](Oc2cc(-c3ccccc3)nc3cc(OC)ccc23)CN1C(=O)[C@@H](OC(=O)Nc1ccc(OC)cc1C)C(C)(C)C)C(=O)NS(=O)(=O)C1CC1` [Example 5,Compound 6]: the pIC50 in experiment [1] is 6.00 to 7.00. In experiment [2], the pEC50 was 5.30 to 6.30.

Consider `C=C[C@@H]1C[C@]1(NC(=O)[C@@H]1C[C@@H](Oc2cc(-c3ccccc3)nc3cc(OC)ccc23)CN1C(=O)[C@@H](OC(=O)Nc1ccc(N(C)C)cc1)C(C)(C)C)C(=O)NS(=O)(=O)C1CC1` [Example 5,Compound 7], for which, in experiment [1], the pIC50 is 6.00 to 7.00. In addition, in experiment [2], the pEC50 is 5.30 to 6.30.

As for `C=C[C@@H]1C[C@]1(NC(=O)[C@@H]1C[C@@H](Oc2nccc3ccccc23)CN1C(=O)[C@@H](O)C(C)(C)C)C(=O)NS(=O)(=O)C1CC1` [Example 8], in experiment [1], the pIC50 is 6.00 to 7.00. In experiment [2], the pEC50 is 5.30 to 6.30.

In the case of `C=C[C@@H]1C[C@]1(NC(=O)[C@@H]1C[C@@H](Oc2nccc3ccccc23)CN1C(=O)[C@@H](OC(=O)NC1CCCC1)C(C)(C)C)C(=O)NS(=O)(=O)C1CC1` [Example 9], the pIC50 in experiment [1] was 6.00 to 7.00. Further, the pEC50 in experiment [2] was 5.30 to 6.30.

On to `CCC1C[C@]1(NC(=O)[C@@H]1C[C@@H](Oc2cc(-c3ccccc3)nc3cc(OC)ccc23)CN1C(=O)C(O)C(C)(C)C)C(=O)NS(=O)(=O)C1CC1` (stereo partly shown) [Example 10], for which, in experiment [1], the pIC50 was more than 7.00. For the same compound, the pEC50 in experiment [2] is 5.30 to 6.30.

Consider `CCC1C[C@]1(NC(=O)[C@@H]1C[C@@H](Oc2cc(-c3ccccc3)nc3cc(OC)ccc23)CN1C(=O)C(O)C(C)C)C(=O)NS(=O)(=O)C1CC1` (stereo partly shown) [Example 11], for which the pIC50 in experiment [1] was more than 7.00. The pEC50 in experiment [2] is 5.30 to 6.30.

On to `C=C[C@@H]1C[C@]1(NC(=O)[C@@H]1CC(Oc2cc(-c3ccccc3)nc3cc(OC)ccc23)CN1C(=O)[C@@H](O)C(C)(C)C)C(=O)NS(=O)(=O)C1(CC2CC2)CC1` (stereo partly shown) [Example 12], for which the pIC50 in experiment [1] is more than 7.00. In addition, the pEC50 in experiment [2] is 5.30 to 6.30.

Regarding `CCC1C[C@]1(NC(=O)[C@@H]1C[C@@H](Oc2cc(-c3ccccc3)nc3cc(OC)ccc23)CN1C(=O)[C@@H](O)C1CCCCC1)C(=O)NS(=O)(=O)C1CC1` (stereo partly shown) [Example 13], the pIC50 in experiment [1] is more than 7.00. Also, in experiment [2], the pEC50 was 5.30 to 6.30.

On to `C=C[C@@H]1C[C@]1(NC(=O)[C@@H]1C[C@@H](Oc2cc(-c3ccccc3)nc3cc(OC)ccc23)CN1C(=O)C(O)c1ccccc1)C(=O)NS(=O)(=O)C1CC1` (stereo partly shown) [Example 14], for which the pIC50 in experiment [1] was 6.00 to 7.00. In experiment [2], the pEC50 is less than 5.30.

On to `CCC1C[C@]1(NC(=O)[C@@H]1C[C@@H](Oc2cc(-c3ccccc3)nc3cc(OC)ccc23)CN1C(=O)C1(O)CC1)C(=O)NS(=O)(=O)C1CC1` (stereo partly shown) [Example 15], for which, in experiment [1], the pIC50 was 6.00 to 7.00. Further, the pEC50 in experiment [2] is 5.30 to 6.30.

As to `CCC1C[C@]1(NC(=O)[C@@H]1C[C@@H](Oc2cc(-c3ccccc3)nc3cc(OC)ccc23)CN1C(=O)C(O)Cc1c[nH]cn1)C(=O)NS(=O)(=O)C1CC1` (stereo partly shown) [Example 16], the pIC50 in experiment [1] was 6.00 to 7.00. Besides, the negative-log EC50 (pEC50) in experiment [2] is less than 5.30.

For the compound `CCC1C[C@]1(NC(=O)[C@@H]1C[C@@H](Oc2cc(-c3ccccc3)nc3cc(OC)ccc23)CN1C(=O)[C@@H](O)CC(C)C)C(=O)NS(=O)(=O)C1CC1` (stereo partly shown) [Example 17], the pIC50 in experiment [1] is 6.00 to 7.00. Further, the pEC50 in experiment [2] was 5.30 to 6.30.

`C=C[C@@H]1C[C@]1(NC(=O)[C@@H]1C[C@@H](Oc2cc(-c3ccccc3)nc3cc(OC)ccc23)CN1C(=O)[C@H](O)c1ccccc1)C(=O)NS(=O)(=O)C1CC1` [Example 18]: the pIC50 in experiment [1] was 6.00 to 7.00. In addition, in experiment [2], the pEC50 is less than 5.30.

Consider `C=C[C@@H]1C[C@]1(NC(=O)[C@@H]1CC(Oc2nc(-c3ccc(OC(F)(F)F)cc3)cc3cc(OC)ccc23)CN1C(=O)[C@@H](O)C(C)(C)C)C(=O)NS(=O)(=O)C1CC1` (stereo partly shown) [Example 20], for which, in experiment [1], the pIC50 was more than 7.00. Besides, the pEC50 in experiment [2] is 5.30 to 6.30.

On to `C=C[C@@H]1CC1(NC(=O)[C@@H]1C[C@@H](Oc2cc(-c3ccccc3)nc3cc(OC)ccc23)CN1C(=O)[C@@H](OC(=O)NC(C)(C)C)C(C)(C)C)C(=O)NS(=O)(=O)C1(CC2CC2)CC1` (stereo partly shown) [Example 22], for which the negative-log IC50 (pIC50) in experiment [1] was more than 7.00. Further, the pEC50 in experiment [2] was 5.30 to 6.30.

On to `C=C[C@@H]1C[C@]1(NC(=O)[C@@H]1C[C@@H](Oc2nc(-c3ccc(OC(F)(F)F)cc3)cc3cc(OC)ccc23)CN1C(=O)[C@@H](OC(=O)NC(C)(C)C)C(C)(C)C)C(=O)NS(=O)(=O)C1CC1` [Example 23], for which the pIC50 in experiment [1] is more than 7.00. Further, in experiment [2], the pEC50 was 5.30 to 6.30.

`C=C[C@@H]1C[C@]1(NC(=O)[C@@H]1C[C@@H](Oc2nccc3ccccc23)CN1C(=O)[C@@H](OC(=O)NC(C)(C)C)C(C)(C)C)C(=O)NS(=O)(=O)C1CC1` [Example 24]: the pIC50 in experiment [1] was 6.00 to 7.00. Moreover, in experiment [2], the pEC50 was 5.30 to 6.30.

Usually pIC50 stands for the IC50 on a negative log10 scale, so that one unit is a factor of ten. In general, pEC50 refers to the EC50 on a negative log10 scale, so that one unit is a factor of ten.

Values taken from patent publication US7323447B2, “Hepatitis C virus inhibitors” (Bristol-Myers Squibb Company, priority 2005, dated 2008).
